Columns and labels:
C. elegans = assay: Confocal microscopy of mitochondria in body wall muscle (pmyo-3::mito::GFP reporter); details: in vivo
Protocol: Confocal Microscopy and Image Processing Worms were immobilized with 6 mM solution of tetramisole hydrochloride (Sigma, Buchs, Switzerland) in M9 and mounted on 6% agarose pads on glass slides. Images of worms were acquired using Zeiss LSM 700 Upright confocal microscope (Carl Zeiss AG, Oberkochen, Germany) under non-saturating exposure conditions. All the snapshots were taken from the same part of C. elegans: muscles from the upper part of the worm, excluding the regions of oesophagus and vulva. For each condition multiple worms were observed and imaged. Image processing was performed with the Fiji software. One of the critical issues during the imaging process was the position of the worm, as it influences the level of background. For the uniformity of the represented images, contrast and brightness were adjusted in order, to eliminate the undesirable background signal. Neither of these manipulations was affecting the mitochondrial shape. Tracing of the mitochondrial network contour was done by the use of Gaussian blur filter followed by the application of Laplacian operator.

GPR109A = molecular target: T1, GPR109A (Homo sapiens, UniProt Q8TDS4); assay type: cell-based; details: GPR109A-expressing Chem-4 cells
T1 construct: host or cells: Chem-4 cells (Ready-to-Assay GPR109A Nicotinic Acid Receptor Cells)
Protocol: GPR109A—Calcium Mobilization Assay. Ready-to-Assai™ GRP109A Nicotinic Acid Receptor Cells were used to measure calcium mobilization as specified by the manufacturer (Millipore). Calcium flux was determined using excitation at 340 and 380 nm in a fluorescence spectrophotometer (Victor X4, Perkin Elmer) in a 180 seconds time course, adding the ligand at 60 seconds. Internal validation was made using 0.1% Triton X-100 for total fluorophore release and 10 mM EGTA to chelate free calcium. Similarly, GPR109A specificity was internally validated using control cells devoid of GRP109A overexpression. Liver triglyceride measurement Liver triglycerides were measured from 20 mg of liver tissue using a variation of the Folch method, as described in Bai et al. (Bai et al., PARP-2 regulates SIRT1 expression and whole-body energy expenditure. (2011). Cell Metab 13, 450-460.

T1 sequence (Q8TDS4 whole entry): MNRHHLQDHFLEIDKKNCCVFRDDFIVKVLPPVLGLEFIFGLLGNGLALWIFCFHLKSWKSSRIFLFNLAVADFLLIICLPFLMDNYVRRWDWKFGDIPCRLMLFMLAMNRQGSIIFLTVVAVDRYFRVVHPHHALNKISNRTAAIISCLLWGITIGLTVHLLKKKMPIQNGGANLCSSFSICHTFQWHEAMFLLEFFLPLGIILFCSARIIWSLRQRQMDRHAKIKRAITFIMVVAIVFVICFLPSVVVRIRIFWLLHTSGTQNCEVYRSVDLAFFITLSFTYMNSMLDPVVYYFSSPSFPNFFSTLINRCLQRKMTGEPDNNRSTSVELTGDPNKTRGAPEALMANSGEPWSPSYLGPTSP

GPR109A activation (calcium flux) (GPR109A): did not activate GPR109A
Compound: NC(=O)c1ccc[n+]([C@@H]2O[C@H](CO)[C@@H](O)[C@H]2O)c1 [NR, nicotinamide riboside]
mitochondrial content in body wall muscle (C. elegans): increase muscle mitochondrial content
mitochondrial morphology in body wall muscle (C. elegans): affect mitochondrial morphology
